Peptide text beside a SMILES is read from it.
Excerpt: All subjects who met eligibility criteria were confined to the clinical research unit from […] through Day 3. At admission, physical examination, vital signs, 12 lead ECG and weight were obtained, medical and medication history were updated if necessary, safety blood tests (hematology and chemistry), urinalysis, urine drug screen and an alcohol breath test were repeated and a urine pregnancy test was done for women of childbearing potential.
At each dose level, there were 2 sentinel subjects, (1 active, 1 placebo), who were dosed at least 48 hours in advance of the other subjects in their respective group. Following review of safety data, including physical examination, vital signs, and review of adverse events from the first 2 subjects, enrolment in the cohort continued.
A 12-lead ECG was performed on Day 1, within 60 minutes of infusion start (in triplicate), mid-way through the infusion, at the completion of the infusion, 30 minutes after completion of the infusion and at various timepoints following the end of the infusion.
Vital signs were recorded within 60 minutes pre-dose, at the mid-point of the infusion and post dose vitals were assessed at completion of the infusion, 0.5, 1, 2, 3, 4, 6, 9, 12, 24 and 48 hours post dose, after at least 3 minutes of rest in supine position.
Subjects returned to the study center 7 days after dosing, for the termination visit. A full physical examination, vital signs and weight were obtained, concomitant medications were updated if necessary, safety blood specimens (haematology and chemistry, PT and aPTT) and urine were collected for urinalysis and urine drug screening. A serum pregnancy test was done for women of childbearing potential and a 12-lead ECG was performed.
In this study dose limiting toxicity (DLT) was defined as any drug related ≥Grade 3 AEs occurring despite optimal therapeutic interventions (which included but were not limited to allergic/hypersensitivity reactions, dermatological reactions/infusion site reactions, haematological toxicities such as neutropenia, thrombocytopenia and anaemia and clinical chemistry abnormalities) experienced up to Day 7 (Termination Visit).
(§1) All subjects who received any amount of study drug were included in the safety analysis (Safety population).
The study was a double blinded, randomized, placebo-controlled study. The placebo administered was 0.9% sodium chloride.
On Day 1 (day of dosing), subjects were randomly assigned either peptide IV or Placebo IV. At each dose level, there were 2 sentinel subjects, (1 active, 1 placebo), who were dosed at least 48 hours in advance of the other subjects in their respective group. Following review of safety data, including physical examination, vital signs, and review of adverse events from the first 2 subjects, enrolment in the cohort continued. All subjects who met eligibility criteria were confined to the clinical research unit from Day −2 through Day 3. At admission, physical examination, vital signs, 12 lead ECG and weight were obtained, medical and medication history were updated if necessary, safety blood tests (hematology and chemistry), urinalysis, urine drug screen and an alcohol breath test were repeated and a urine pregnancy test was done for women of childbearing potential.
as §1

CC(C)[C@H](NC(=O)[C@H](Cc1c[nH]c2ccccc12)NC(=O)[C@H](CCCNC(=N)N)NC(=O)[C@H](CCCNC(=N)N)NC(=O)[C@@H](NC(=O)[C@@H](NC(=O)[C@H](CCCNC(=N)N)NC(=O)[C@@H](NC(=O)[C@@H](NC(=O)[C@H](CCCNC(=N)N)NC(=O)[C@H](CCCNC(=N)N)NC(=O)[C@H](Cc1c[nH]c2ccccc12)NC(=O)[C@@H](NC(=O)[C@H](CCCNC(=N)N)NC(=O)[C@H](CCCNC(=N)N)NC(=O)[C@@H](NC(=O)[C@H](CCCNC(=N)N)NC(=O)[C@H](CCCNC(=N)N)NC(=O)[C@@H](NC(=O)[C@H](Cc1c[nH]c2ccccc12)NC(=O)[C@H](CCCNC(=N)N)NC(=O)[C@@H](N)CCCNC(=N)N)C(C)C)C(C)C)C(C)C)C(C)C)C(C)C)C(C)C)C(C)C)C(=O)N[C@@H](CCCNC(=N)N)C(=O)N[C@@H](CCCNC(=N)N)C(N)=O [SEQ ID NO: 1] (H-RRWVRRVRRVWRRVVRVVRRWVRR-NH2)
TEAE severity Grade 5, participants n (%) (Pooled SEQ ID NO: 1 (N = 35)): 0
Treatment-related TEAE: Abdominal distension, occurrences m (Pooled SEQ ID NO: 1 (N = 35)): 1
Treatment-related TEAE: Abdominal distension, participants n (%) (Pooled SEQ ID NO: 1 (N = 35)): 1 (2.9%)
Treatment-related TEAE: Blood and Lymphatic System Disorders, participants n (%) (Pooled SEQ ID NO: 1 (N = 35)): 0
Treatment-related TEAE: Constipation, participants n (%) (Pooled SEQ ID NO: 1 (N = 35)): 0
Treatment-related TEAE: Diarrhea, occurrences m (Pooled SEQ ID NO: 1 (N = 35)): 1
Treatment-related TEAE: Diarrhea, participants n (%) (Pooled SEQ ID NO: 1 (N = 35)): 1 (2.9%)
Treatment-related TEAE: Dizziness, occurrences m (Pooled SEQ ID NO: 1 (N = 35)): 1
Treatment-related TEAE: Dizziness, participants n (%) (Pooled SEQ ID NO: 1 (N = 35)): 1 (2.9%)
Treatment-related TEAE: Feeling hot, participants n (%) (Pooled SEQ ID NO: 1 (N = 35)): 0
Treatment-related TEAE: Gastrointestinal Disorders, occurrences m (Pooled SEQ ID NO: 1 (N = 35)): 3
Treatment-related TEAE: Gastrointestinal Disorders, participants n (%) (Pooled SEQ ID NO: 1 (N = 35)): 2 (5.7%)
Treatment-related TEAE: General Disorders and Administration Site Conditions, occurrences m (Pooled SEQ ID NO: 1 (N = 35)): 11
Treatment-related TEAE: General Disorders and Administration Site Conditions, participants n (%) (Pooled SEQ ID NO: 1 (N = 35)): 10 (28.6%)
Treatment-related TEAE: Headache, occurrences m (Pooled SEQ ID NO: 1 (N = 35)): 1
Treatment-related TEAE: Headache, participants n (%) (Pooled SEQ ID NO: 1 (N = 35)): 1 (2.9%)
Treatment-related TEAE: Infusion related reaction, occurrences m (Pooled SEQ ID NO: 1 (N = 35)): 1
Treatment-related TEAE: Infusion related reaction, participants n (%) (Pooled SEQ ID NO: 1 (N = 35)): 1 (20.0%)
Treatment-related TEAE: Infusion site discomfort, occurrences m (Pooled SEQ ID NO: 1 (N = 35)): 1
Treatment-related TEAE: Infusion site discomfort, participants n (%) (Pooled SEQ ID NO: 1 (N = 35)): 1 (2.9%)
Treatment-related TEAE: Infusion site pain, occurrences m (Pooled SEQ ID NO: 1 (N = 35)): 3
Treatment-related TEAE: Infusion site pain, participants n (%) (Pooled SEQ ID NO: 1 (N = 35)): 3 (8.6%)
Treatment-related TEAE: Infusion site reaction, occurrences m (Pooled SEQ ID NO: 1 (N = 35)): 4
Treatment-related TEAE: Infusion site reaction, participants n (%) (Pooled SEQ ID NO: 1 (N = 35)): 4 (11.4%)
Treatment-related TEAE: Infusion site swelling, occurrences m (Pooled SEQ ID NO: 1 (N = 35)): 1
Treatment-related TEAE: Infusion site swelling, participants n (%) (Pooled SEQ ID NO: 1 (N = 35)): 1 (2.9%)
Treatment-related TEAE: Injury, Poisoning, and Procedural Complications, occurrences m (Pooled SEQ ID NO: 1 (N = 35)): 1
Treatment-related TEAE: Injury, Poisoning, and Procedural Complications, participants n (%) (Pooled SEQ ID NO: 1 (N = 35)): 1 (20.0%)
Treatment-related TEAE: Macule, occurrences m (Pooled SEQ ID NO: 1 (N = 35)): 1
Treatment-related TEAE: Macule, participants n (%) (Pooled SEQ ID NO: 1 (N = 35)): 1 (2.9%)
Treatment-related TEAE: Musculoskeletal and Connective Tissue Disorders, occurrences m (Pooled SEQ ID NO: 1 (N = 35)): 1
Treatment-related TEAE: Musculoskeletal and Connective Tissue Disorders, participants n (%) (Pooled SEQ ID NO: 1 (N = 35)): 1 (2.9%)
Treatment-related TEAE: Myalgia, occurrences m (Pooled SEQ ID NO: 1 (N = 35)): 1
Treatment-related TEAE: Myalgia, participants n (%) (Pooled SEQ ID NO: 1 (N = 35)): 1 (2.9%)
Treatment-related TEAE: Oropharyngeal pain, participants n (%) (Pooled SEQ ID NO: 1 (N = 35)): 0
Treatment-related TEAE: Orthostatic hypotension, occurrences m (Pooled SEQ ID NO: 1 (N = 35)): 1
Treatment-related TEAE: Orthostatic hypotension, participants n (%) (Pooled SEQ ID NO: 1 (N = 35)): 1 (2.9%)
Treatment-related TEAE: Pain in extremity, participants n (%) (Pooled SEQ ID NO: 1 (N = 35)): 0
Treatment-related TEAE: Phlebitis, occurrences m (Pooled SEQ ID NO: 1 (N = 35)): 3
Treatment-related TEAE: Phlebitis, participants n (%) (Pooled SEQ ID NO: 1 (N = 35)): 3 (8.6%)
Treatment-related TEAE: Respiratory, Thoracic, and Mediastinal disorders, participants n (%) (Pooled SEQ ID NO: 1 (N = 35)): 0
Treatment-related TEAE: Skin and Subcutaneous Tissue Disorders, occurrences m (Pooled SEQ ID NO: 1 (N = 35)): 1
Treatment-related TEAE: Skin and Subcutaneous Tissue Disorders, participants n (%) (Pooled SEQ ID NO: 1 (N = 35)): 1 (2.9%)
Treatment-related TEAE: Thrombocytopenia, participants n (%) (Pooled SEQ ID NO: 1 (N = 35)): 0
Treatment-related TEAE: Vascular Disorders, occurrences m (Pooled SEQ ID NO: 1 (N = 35)): 4
Treatment-related TEAE: Vascular Disorders, participants n (%) (Pooled SEQ ID NO: 1 (N = 35)): 3 (8.6%)
Treatment-related TEAE: Vessel puncture site erythema, occurrences m (Pooled SEQ ID NO: 1 (N = 35)): 1
Treatment-related TEAE: Vessel puncture site erythema, participants n (%) (Pooled SEQ ID NO: 1 (N = 35)): 1 (2.9%)
Treatment-related TEAE: Vessel puncture site pain, occurrences m (Pooled SEQ ID NO: 1 (N = 35)): 1
Treatment-related TEAE: Vessel puncture site pain, participants n (%) (Pooled SEQ ID NO: 1 (N = 35)): 3 (2.9%)
Treatment-related TEAE: Vomiting, occurrences m (Pooled SEQ ID NO: 1 (N = 35)): 1
Treatment-related TEAE: Vomiting, participants n (%) (Pooled SEQ ID NO: 1 (N = 35)): 1 (2.9%)
Number of Participants Reporting at least: Onc TEAE Leading to Study Withdrawal, n (%) (Pooled active cohorts (N = 35)): 0
Number of Participants Reporting at least: One Dose-Limiting Toxicity, n (%) (Pooled active cohorts (N = 35)): 0
Number of Participants Reporting at least: One Related TEAE, n (%) (Pooled active cohorts (N = 35)): 13 (37.1%)
Number of Participants Reporting at least: One Serious TEAE, n (%) (Pooled active cohorts (N = 35)): 0
Number of Participants Reporting at least: One TEAE Leading to Study Drug Discontinuation, n (%) (Pooled active cohorts (N = 35)): 2 (5.7%)
Number of Participants Reporting at least: One TEAE with Common Terminology Criteria for Adverse Events (CTCAE) Toxicity ≥ Grade 3, n (%) (Pooled active cohorts (N = 35)): 0
Number of Participants Reporting at least: One TEAE, n (%) (Pooled active cohorts (N = 35)): 31 (88.6%)
One Related TEAE, m (Pooled active cohorts (N = 35)): 23
One TEAE Leading to Study Drug Discontinuation, m (Pooled active cohorts (N = 35)): 4
One TEAE, m (Pooled active cohorts (N = 35)): 72
TEAE Severity Grade 1, m (Pooled active cohorts (N = 35)): 64
TEAE Severity Grade 1, n (%) (Pooled active cohorts (N = 35)): 30 (85.7%)
TEAE Severity Grade 2, m (Pooled active cohorts (N = 35)): 8
TEAE Severity Grade 2, n (%) (Pooled active cohorts (N = 35)): 5 (14.3%)
overall safety and tolerability (healthy volunteers, 0.05 to 1 mg/kg, drug concentration below 0.50 mg/mL and dose rate below 25 mg/hour): safe and well tolerated
severity of IRRs in relation to maximum dose rate (maximum dose rate higher (>25 mg/hr)): more severe
